Patent publication US20250339441A1, “METHODS OF TREATING CANCER” (FOGHORN THERAPEUTICS INC., priority 2022, published 2025)

Tests used:
[1] = Phase 1 dose escalation clinical trial of Compound A, oral, in subjects with metastatic uveal melanoma; type: in vivo
Protocol: A Phase 1 dose escalation clinical trial of Compound A is conducted. The trial is primarily intended to determine the maximum tolerated dose (MTD) and/or recommended phase 2 dose of the compound when administered orally to subjects with metastatic uveal melanoma (UM).
In this ongoing study, Compound A has been administered at dose levels of 2.5 mg once a day (QD), 5 mg QD, 7.5 mg QD, and 10 mg QD to 17 subjects with metastatic UM. […] In evaluable subjects, myeloid differentiation and reduction in bone marrow and/or peripheral blasts have been observed.

[2] = Population PK model (nonlinear mixed-effects, two-compartment) of oral Compound A patient concentration vs. time data; type: in vivo, human
Protocol: A population PK model based on orally administered Compound A dosing data in a total of 10 patients with metastatic uveal melanoma (UM) and advanced hematologic malignancies (e.g., acute myeloid leukemia (AML)) was performed.
Nonlinear mixed-effects models were fitted to concentration vs. time data of FHD-286. Various compartmental models with linear elimination (1-, 2- and 3-compartment), absorption models, structures of omega on clearances, volumes and absorption parameters (diagonal and block) were developed to assess the PK of Compound A.
Overall, a two-compartment model with linear elimination, a zero-order oral absorption, and a lag time of absorption adequately characterized the concentration-time profiles of Compound A.
Exploratory analysis of covariate effects was performed with appropriate plots presenting relationships between the ETAs (e.g., values reflecting the difference between and individual's parameter value and that of the population) of PK parameters to identify any remaining covariate trends. […] Therefore a “Multiple Dose Effect” on CL was included in the model to account for this change over time.
No other covariates were included as part of the model.

[3] = final population PK model, oral, 10 patients

SMILES: COC[C@H](NC(=O)c1ccn(S(C)(=O)=O)c1)C(=O)Nc1nc(-c2cccc(N3C[C@@H](C)O[C@@H](C)C3)n2)cs1 [Compound A, N-(1-((4-(6-(2,6-dimethylmorpholino)pyridin-2-yl)thiazol-2-yl)amino)-3-methoxy-1-oxopropan-2-yl)-1-(methylsulfonyl)-1H-pyrrole-3-carboxamide]
- myeloid differentiation ([1]; in evaluable subjects): observed
- reduction in bone marrow and/or peripheral blasts ([1]; in evaluable subjects): observed
- dose limiting toxicity ([1]; one subject at the 7.5 mg QD dose level, improved with a dose hold): Grade 3 keratitis
- half-life (preliminary PK analysis) ([1]; oral 2.5, 5, 7.5, 10 mg QD, 17 subjects with metastatic UM, preliminary): long
- plasma concentrations of the compound versus dose ([1]; oral 2.5-10 mg QD, subjects with metastatic UM, preliminary): increase with increasing dose
- change in clearance (CL) over time ([2]; after multiple doses): reduction
- CL, Estimate [2, 3]: 4.07 L/h
- CLp, Estimate [2, 3]: 30.6 L/h
- Tlag, Estimate (lag time of absorption) [2, 3]: 0.452 h
- Vc, Estimate [2, 3]: 54.6 L
- Vd, Estimate [2, 3]: 165 L
- Dur, Estimate (zero-order oral absorption) ([2]; final population PK model, oral, 10 patients with metastatic UM and advanced hematologic malignancies): 1.77 h
